Consider 3 compounds from PubChem BioAssay AID588650 (The Scripps Research Institute Molecular Screening Center, 2011).

As a reminder, the inhibition is the drop in the measured response relative to a control, in per cent.

Structures are written as SMILES.

The target in the assay is Epidermal growth factor receptor (Homo sapiens) (UniProt P00533). The experiment in a line: decrease of p-EGFR levels in colorectal cells – HCT116 cells, chemiluminescent western blot, powder samples, counter-screen for KLF5 inhibitor project, late-stage follow-up (AID 588650). The conditions noted are these: HCT116 phospho-EGFR western blot, 24 h; at 10 µM; stronger effect = higher value.
Epidermal growth factor receptor (Homo sapiens), sequence (P00533 whole entry, looked up): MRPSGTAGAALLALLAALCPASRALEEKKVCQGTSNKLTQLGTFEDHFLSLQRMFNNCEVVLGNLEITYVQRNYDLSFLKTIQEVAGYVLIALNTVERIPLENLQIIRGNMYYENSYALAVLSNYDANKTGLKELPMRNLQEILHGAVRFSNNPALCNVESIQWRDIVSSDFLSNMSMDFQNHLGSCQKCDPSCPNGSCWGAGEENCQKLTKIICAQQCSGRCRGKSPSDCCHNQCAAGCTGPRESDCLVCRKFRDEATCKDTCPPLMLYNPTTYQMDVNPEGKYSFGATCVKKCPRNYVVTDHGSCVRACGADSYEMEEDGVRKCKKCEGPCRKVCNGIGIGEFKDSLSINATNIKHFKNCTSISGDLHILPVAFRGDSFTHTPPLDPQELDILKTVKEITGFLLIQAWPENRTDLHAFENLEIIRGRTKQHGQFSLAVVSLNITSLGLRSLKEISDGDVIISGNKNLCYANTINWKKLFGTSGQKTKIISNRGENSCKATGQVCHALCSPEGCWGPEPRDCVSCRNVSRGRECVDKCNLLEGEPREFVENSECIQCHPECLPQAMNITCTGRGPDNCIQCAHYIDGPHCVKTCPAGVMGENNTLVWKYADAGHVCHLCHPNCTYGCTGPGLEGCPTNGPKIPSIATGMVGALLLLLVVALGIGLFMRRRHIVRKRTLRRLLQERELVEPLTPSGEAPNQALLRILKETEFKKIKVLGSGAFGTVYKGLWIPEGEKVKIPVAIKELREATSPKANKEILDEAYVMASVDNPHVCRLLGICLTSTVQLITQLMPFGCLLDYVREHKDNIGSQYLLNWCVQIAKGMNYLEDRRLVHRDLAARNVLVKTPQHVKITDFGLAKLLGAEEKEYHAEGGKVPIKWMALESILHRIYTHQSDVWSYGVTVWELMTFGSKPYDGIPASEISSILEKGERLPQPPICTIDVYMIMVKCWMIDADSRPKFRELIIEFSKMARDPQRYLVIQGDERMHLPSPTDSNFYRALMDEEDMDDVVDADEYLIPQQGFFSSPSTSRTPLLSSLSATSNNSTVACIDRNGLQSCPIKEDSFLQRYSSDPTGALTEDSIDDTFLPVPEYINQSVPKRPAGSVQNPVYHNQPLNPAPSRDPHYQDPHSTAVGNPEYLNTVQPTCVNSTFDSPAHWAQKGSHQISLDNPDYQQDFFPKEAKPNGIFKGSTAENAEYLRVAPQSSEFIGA
As to `CN(C(=O)COC(=O)/C=C/c1cccc([N+](=O)[O-])c1)C1CCS(=O)(=O)C1` (stereo not drawn), the inhibition is -64.9%.
As for `CN(C(=O)CNC(=O)/C=C/c1cccc(Cl)c1)C1CCS(=O)(=O)C1` (stereo not drawn), the figure is -53.2%; as for `CN(C(=O)CNC(=O)/C=C/c1cccc(Cl)c1)C1CCS(=O)(=O)CC1`, -254%.
